Results published in ChEMBL document CHEMBL3886179, “Substituted 6, 7-dialkoxy-3-isoquinoline derivatives as inhibitors of phosphodiesterase 10 (PDE 10A)” (2015).

biological target: cAMP and cAMP-inhibited cGMP 3',5'-cyclic phosphodiesterase 10A (Homo sapiens, UniProt Q9Y233); experiment: Diaxonhit Phosphodiesterase Assay: The phosphodiesterase assay was developed using the LANCE cAMP kit (PerkinElmer). The assay buffer contained HBSS with 5 mM HEPES, 0.1% BSA, and 1.5 mM MgCl2, pH 7.4. PDE10A (BPS Bioscience) was used at 200 pg/well (with a specific activity of 3200 pmole/min/ug with assay conditions: 10 mM Tris-HCl, pH 7.4, 10 mM MgCl2, 1 mM MnCl2, 200 uM cAMP, 2.5 kU 5' nucleotidase, 37° C., 20 min) and PDE4D3 (BPS Bioscience) was used at 100 pg/well (with a specific activity of 32713 pmole/min/ug with assay conditions: 10 mM Tris-HCl, pH 7.4, 10 mM MgCl2, 1 mM MnCl2, 200 uM cAMP, 2.5 kU 5' nucleotidase, 37° C., 20 min). The Biotin-cAMP tracer, supplied in 10 mmol/L Tris-HCl buffered (pH 8.0) salt solution with 1 mmol/L ethylenediaminetetraacetic acid (EDTA), 0.1% bovine serum albumin (BSA), and 0.05% sodium azide, is used at a dilution of 1/375. The assay detection mixture contained the LANCE Eu-W8044 labeled streptavidin 1/2250 (supplied in 50 mmol/L Tris-HCl buffer).
Sequence (Q9Y233 whole entry): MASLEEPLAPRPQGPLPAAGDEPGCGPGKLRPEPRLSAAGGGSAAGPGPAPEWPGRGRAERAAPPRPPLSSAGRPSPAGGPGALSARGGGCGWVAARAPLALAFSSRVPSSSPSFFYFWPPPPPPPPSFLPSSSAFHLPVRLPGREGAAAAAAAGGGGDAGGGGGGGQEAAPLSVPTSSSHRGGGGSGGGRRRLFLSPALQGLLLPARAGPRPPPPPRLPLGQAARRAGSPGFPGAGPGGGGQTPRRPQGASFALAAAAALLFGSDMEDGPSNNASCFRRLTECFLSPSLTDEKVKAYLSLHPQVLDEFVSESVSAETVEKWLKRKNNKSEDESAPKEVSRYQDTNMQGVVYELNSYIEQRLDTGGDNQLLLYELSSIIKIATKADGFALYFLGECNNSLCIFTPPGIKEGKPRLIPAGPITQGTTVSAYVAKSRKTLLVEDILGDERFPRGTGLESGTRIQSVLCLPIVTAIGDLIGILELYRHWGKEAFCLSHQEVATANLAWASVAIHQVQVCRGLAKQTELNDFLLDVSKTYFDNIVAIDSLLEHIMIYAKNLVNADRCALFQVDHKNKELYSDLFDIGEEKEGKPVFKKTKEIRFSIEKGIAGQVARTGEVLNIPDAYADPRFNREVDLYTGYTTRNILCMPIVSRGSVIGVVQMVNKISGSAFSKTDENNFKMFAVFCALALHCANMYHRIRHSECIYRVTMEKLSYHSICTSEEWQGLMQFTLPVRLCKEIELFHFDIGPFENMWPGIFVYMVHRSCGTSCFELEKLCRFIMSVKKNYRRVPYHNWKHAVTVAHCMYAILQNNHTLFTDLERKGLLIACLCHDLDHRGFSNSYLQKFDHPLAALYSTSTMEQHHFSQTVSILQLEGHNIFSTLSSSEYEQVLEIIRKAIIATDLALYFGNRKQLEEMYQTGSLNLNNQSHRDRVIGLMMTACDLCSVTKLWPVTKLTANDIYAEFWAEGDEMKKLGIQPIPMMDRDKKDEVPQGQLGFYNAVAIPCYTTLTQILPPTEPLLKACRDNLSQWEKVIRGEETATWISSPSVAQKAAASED

Row | IC50 [nM] | Structure (SMILES)
1 | 67 | COc1cc2c(Cc3ccc4cccc(OCC(N)=O)c4n3)cnc(C3CC3)c2cc1OC
2 | 4.6 | CCc1ncc(Cc2cnc3ccc(NS(N)(=O)=O)cc3c2)c2cc(OC)c(OC)cc12
3 | 64 | COc1cc2c(Cc3ccc4cccc(OCC(N)=O)c4n3)cnc(C)c2cc1OC
4 | 17 | CCc1ncc(Cc2ccc3cccc(NC(C)=O)c3n2)c2cc(OC)c(OC)cc12
5 | 28 | COCc1ncc(Cc2ccc3cccc(OCCO)c3n2)c2cc(OC)c(OC)cc12
6 | 95 | COc1cc2cncc(Cc3ccc4oc(-c5ccccc5CO)nc4c3)c2cc1OC
7 | 3.5 | CCc1ncc(Cc2ccc3cccc(NS(=O)(=O)CC)c3n2)c2cc(OC)c(OC)cc12
8 | 28 | CCc1ncc(Cc2ccc3nc(C)ccc3c2)c2cc(OC)c(OC)cc12
9 | 13 | CCc1ncc(Cc2cnc3ccc(N)cc3c2)c2cc(OC)c(OC)cc12
10 | 58 | CCc1ncc(Cc2ccc3cccc(NC(N)=O)c3n2)c2cc(OC)c(OC)cc12
